The source of these data is patent US20110212923A1, “Phosphate Derivatives of Substituted Benzoxazoles” (PFIZER INC., priority 2008, published 2011).

Data set [1] in a line: aqueous solubility at pH 7.4. It is filed as physicochemical. The note with it: aqueous medium at pH 7.4 (buffer not specified), pH 7.4, aqueous buffer.
Data set [2] is described as follows: metabolite profiling of pooled plasma after single IV dose of the mono-phosphate derivative, monkey. Conditions: single IV dose of mono-phosphate derivative (1.3 and 3.9 mg/kg), LC/UV/MS.
Method: (§1) In this study, 5, 15, 30 min, 1, 2, 4, 6, 8 and 24 hr plasma samples were collected following a single IV dose of the mono-phosphate derivative (1.3 and 3.9 mg/kg) to mice, rats and monkeys. Equal volume (100 μL) of samples from 5, 15, 30 min and 1, 2, 4 hr and 6, 8, 24 hr time points from each subject (n=3) were pooled from the two dosing groups. Aliquots (900 μL) of pooled plasma were mixed with 2700 μL of cold acetonitrile and centrifuged at 3200×g for 10 minutes. The resulting supernatants were transferred to clean tubes and evaporated to dryness in a TurboVap LV at ambient temperature under a slow stream of nitrogen. The dried extracts were reconstituted with 300 μL of 20:80 acetonitrile:water (v/v). The samples were then analyzed by LC/UV/MS for metabolite profiling and characterization. LC-ESI/MS in negative ionization mode was used to acquire mass spectral data.
A short description of data set [3]: metabolite profiling of pooled plasma after single IV dose of the mono-phosphate derivative, rat. The note with it: single IV dose of mono-phosphate derivative (1.3 and 3.9 mg/kg), LC/UV/MS.
Method: as §1
Data set [4] can be described thus: metabolite profiling of pooled plasma after single IV dose of the mono-phosphate derivative, mouse. Conditions: single IV dose of mono-phosphate derivative (1.3 and 3.9 mg/kg), LC/UV/MS.
Method: as §1
Data set [5] concerns Albino BALBc mice, cecal ligation puncture (CLP). The data set is described as follows: cecal ligation puncture (mCLP) model, 7-day survival. It is filed as in vivo. The method, then: The cecal ligation puncture (CLP) procedure was derived from a modification of standard methods previously described. Female, non-pregnant, specific pathogen-free, Albino BALBc mice (20-25 gm) were used in this experiment. The test compound (n=8 in each group) or corn oil control (n=12) were randomized to a treatment protocol consisting of 50 mg/kg of either the test compound or similar volume of corn oil at the time of CLP (time 0) and 24 and 48 hours following surgery. Animals were allowed to eat and drink sterile water on an ad libitum basis until 12 h before surgery when food was withheld until after the surgical procedure.
Anesthetized animals (methoxyflurane, Mallinckodt Veterninary Inc., Mundeline, Ill.) had the abdominal skin shaved and a midline, abdominal incision was made. The cecum was exteriorized and distended using intraluminal contents from the colon. The cecum was then ligated below the ileocecal valve and punctured twice using a 23-gauge sterile needle. The cecum was returned to the peritoneal cavity and the transversalis fascia was closed along with the skin incision. The skin incision was covered with topical bacitracin ointment. The animals were given a single […] dose of trovafloxacin (20 mg/kg IM) immediately post-operatively and a 1-mL subcutaneous dose of PBS was given as fluid resuscitation. […] All animals underwent necropsy examination for histological evidence of organ injury, pathology scoring of intestinal mucosa and quantitative bacteriology.
Differences in survival time between groups were analyzed by Kaplan-Meier survival plots and log-rank testing. Other parameters were measured using a Mann-Whitney U-Test for 2 groups or the Kruskal-Wallis one way analysis of variance for 3 or more groups. A p value of <0.05 was considered significant. All data is presented as mean and standard deviation.
The root compound (ERB-041) was dosed IV in the mCLP model, at 1 and 3 mg/kg at 24, 48 and 72 hours after induction of peritonitis. This therapeutic IV administration in mCLP confirmed attenuation of lung injury and cytokine/chemokine responses and attenuation of the subsequent clinical course, respectively.^5 achieving 7-day survival of 95 and 90% in the 3 and 1 mg/kg groups.
The 1 and 3 mg/kg doses were different from vehicle (0.05).

The next data set in a line: IV pharmacokinetics. It is filed as in vivo.
[6] abbreviates: 1 mg/kg IV at 24, 48 and 72 hours after surgery / induction of peritonitis.
Where [7] appears, read: 3 mg/kg IV at 24, 48 and 72 hours after surgery / induction of peritonitis.

Structures are written as SMILES. In brackets after ≈: the same amount, converted by molar mass. Bounds are passed on as bounds.

Method for IV pharmacokinetics: as §1

As to `C=Cc1cc(O)cc2nc(-c3ccc(O)c(F)c3)oc12` [ERB-041, 2-(3-fluoro-4-hydroxyphenyl)-7-vinyl-1,3-benzoxazol-5-ol, reference compound], the concentration in solution in data set [1] (solubility) was 4 µg/mL (≈ 14.7 µM). The “Metabolites of phosphate prodrug characterized in plasma: Monkey” value in data set [2] is on record as “Yes”. Moreover, the “Metabolites of phosphate prodrug characterized in plasma: Rat” value in data set [3] was “Yes”. Besides, the “Metabolites of phosphate prodrug characterized in plasma: Mouse” value in data set [4] was “Yes”. In addition, the 7-day survival in data set [5] (setting [6]) came out at 90%; in data set [5] (setting [7]) it was 95%. In addition, the “lung injury and cytokine/chemokine responses” value in data set [5] (1 and 3 mg/kg IV at 24, 48 and 72 hours after induction of peritonitis) is given as “attenuation”.

The molecule `C=Cc1cc(O)cc2nc(-c3ccc(OP(=O)(O)O)c(F)c3)oc12` [Mono-Phosphate derivative of ERB 041, 2-fluoro-4-(5-hydroxy-7-vinylbenzo[d]oxazol-2-yl)phenyl dihydrogen phosphate] had a solubility in data set [1] of more than 100 µg/mL. The IV pharmacokinetics entry in the data set “IV pharmacokinetics” was “reasonable”. In data set [2], the “Metabolites of phosphate prodrug characterized in plasma: Monkey” value is recorded as “Yes”. Moreover, the “Metabolites of phosphate prodrug characterized in plasma: Rat” value in data set [3] is on record as “Yes”. Further, the “Metabolites of phosphate prodrug characterized in plasma: Mouse” value in data set [4] is listed as “Yes”. Further, the 7-day survival in data set [5] (0.3 mg/kg IV at 24, 48 and 72 hours after surgery) stood at 40%; in data set [5] (setting [6]), 60%; in data set [5] (setting [7]), 60%. In data set [5] (IV), the “minimally effective dose in mCLP” value is 1 mg/kg.
